The results in this text go back to patent US20240082252A1, “COMPOSITIONS AND METHODS RELATING TO CANCER” (The Penn State Research Foundation, priority 2015, published 2024).

Series [1] can be described thus: serum analysis of toxicity markers at end of study. To be noted: for CREA / BUN: kidney; for CREA: reference levels 0.1-0.3; for BUN: reference levels 18-33.7; for TBIL / ALB / SGPT (ALT) / ALKP: liver function; for TBIL: reference levels 0.1-0.9; for ALB: reference levels 2.5-4.8; for SGPT (ALT): reference levels 33-132, UACC 903 xenograft mice, oral daily; for ALKP: reference levels 62-209; for GLOB: no reference levels printed; for TP / CHOL / GLU: others; for TP: reference levels 3.6-6.6; for CHOL: reference levels 92-157; for GLU: reference levels 198-247; for AMYL: pancreas, reference levels 1691-3615. The format is in vivo, mice. How it is done: At the end of the study, blood samples were collected from each mouse, serum was separated and levels of various toxicity markers were analyzed. All of the measured biomarkers in samples collected from mice were within the normal range which excludes any toxicity caused by these drugs. Furthermore, visceral organs such as, heart, lungs, liver, intestine, spleen and kidney from each mouse were also collected, fixed in formalin and embedded in paraffin to assess any toxicity associated abnormality in cell morphology and tissue structure following hematoxylin and eosin staining.

The subject of series [2] is UACC 903 human melanoma tumors. The experiment in a line: UACC 903 melanoma xenograft, oral drug treatment. It is filed as in vivo, athymic-Foxn1^nu nude mice. To be noted: MK1775 50 mg/kg, AZD5363 150 mg/kg, oral daily for 18 days; vs vehicle. How it is done:
Tumor kinetics studies were undertaken in athymic-Foxn1^nu nude mice (Harlan Laboratories, Indianapolis, IN, USA). In genetic knockdown models, siRNA targeting AKT3 and WEE1 alone or in combination was nucleofected into 1×10^6 UACC 903 or 1205 Lu cells as described above. Cells transfected with scrambled siRNA were used as a control. After plating and allowing the cells to recover for 48 hours, 1×10^6 cells were aliquoted in 0.2 ml of 10% FBS-DMEM and then injected subcutaneously above both the left and right rib cages of 4-6 week old female mice (3-4 mice/group). Dimensions of developing tumors were measured on alternate days, using calipers to estimate size by multiplying length, width and depth in mm^3. For pharmacological synergy studies, 1×10^6 UACC 903 cells were injected subcutaneously above both the left and right rib cages of 4-6 week old female mice. […] Drugs were prepared in 0.5% methylcellulose, 0.5% Tween 80, 5% DMSO and 200 uL administered per oral treatment.
At the end of the study, blood samples were collected from each mouse, serum was separated and levels of various toxicity markers were analyzed. All of the measured biomarkers in samples collected from mice were within the normal range which excludes any toxicity caused by these drugs. […]

For another series, the system named is C8161.C19 cells. The experiment in a line: cytotoxicity of pharmacological agents alone or combined (CellTiter 96), 48 hours. The format is cell-based. To be noted: for cell viability, single agents: 0.15 μM MK1775, 0.31 to 2.5 μM GDC0068, 1.25 to 10 μM AZD5363, FIG. 3E, 3G. How it is done:
(§1) Cytotoxicity of these agents alone or in combination in melanoma cells was measured by plating 2.5 to 5×10^3 cells into 96-well plates followed by growth for 24 to 48 hours in a humidified 37° C. cell culture incubator. […] Control cells were treated with vehicle (DMSO) alone. Cytotoxicity was measured using the CellTiter 96 Aqueous Non-Radioactive Cell Proliferation Assay (Promega). The combined effects of MK1775 and GDC0068 were quantified using CalcuSyn software.

The next series deals with UACC 903 melanoma cells. The experiment in a line: Western blotting of treated cells. The format is cell-based, human. The following applies: 1, 3 or 10 μM AZD5363, FIG. 5C; for phosphorylated CDK1 levels: 1 μM MK1775. How it is done:
Cell lysates were collected 48-96 hours after siRNA transfection or drug treatment by washing plates with PBS followed by addition of RIPA lysis buffer containing Halt Protease & Phosphatase Inhibitor Cocktail (Thermo Scientific, Rockford, IL, USA). Lysates were centrifuged (10,000×g) for 10 minutes at 4° C. to remove cell debris. Protein concentration was measured using the bicinchoninic acid assay kit (Thermo Scientific, Rockford, IL, USA). 25 μg of respective lysates were loaded onto 4-12% Bis-Tris NuPAGE gels (Life Technologies, Grand Island, NY) and run in an XCell SureLock Mini-Cell gel apparatus (Life Technologies, Grand Island, NY), transferred to polyvinylidene difluoride membranes (PVDF) (Pall Corporation, Port Washington, NY), probed with respective primary antibody followed by horseradish peroxidase-conjugated secondary antibody, and exposed using ECL Western Blotting Substrate (Thermo Scientific, Rockford, IL, USA) or Supersignal West Femto Chemiluminescent Substrate (Thermo Scientific, Rockford, IL, USA). Primary antibodies used: p21 (sc-756), p27 (sc-528), PLK1 (sc-17783), p53 (sc-6243) and ERK2 (sc-1647) from Santa Cruz Biotechnology (Dallas, TX), pAKT (S473 in AKT1, 5474 in AKT2 and 5472 in AKT3, #9271), AKT3 (#3788), Total AKT (#4685), pWEE1 (#4910), WEE1 (#4936), p-CDC2 (Y15) (#9111), p-CDC2 ([…]) (#9114), CDC2 (#9112) CHK1 (#2345), pCHK1 (#2344), pRB ([…]/811) (#9308), pRB ([…]) (#9301), pRB ([…]) (#9307), RB (#9309), FOXM1 (#5436), p-Histone H2AX (S139) (#2577) and Cleaved PARP (#9541) from Cell Signaling (Danvers, MA). Secondary antibodies goat anti-rabbit IgG-HRP (sc-2004) and goat anti-mouse IgG-HRP (sc-2005) were purchased from Santa Cruz Biotechnology, Dallas, TX.
Background: Immunoblotting shows a protein as a band on a membrane.

The test system of series [3] is 1205 Lu melanoma xenografts. The experiment in a line: 1205 Lu melanoma xenograft, oral drug treatment. The format is in vivo, Athymic-Foxnlnu nude mice. The following applies: for reduced growth of 1205 Lu xenograft / tumor development: AZD5363 150 mg/kg, MK1775 50 mg/kg, oral daily for 18 days, vs control, FIG. 4C; for reduced growth of 1205 Lu xenograft tumors: b.i.d.: AZD5363 130 mg/kg 4 days on/3 off, MK1775 30 mg/kg 3 days on/4 off, consecutive dosing in combination, 18 days, FIG. 4E. How it is done:
1205 Lu melanoma xenograft tumors were established by subcutaneous injection of 1×10^6 1205 Lu cells injected above both left and right rib cages of 4-6 week-old female Athymic-Foxnlnu nude mice (Harlan Sprague Dawley). Six days later, when a fully vascularized tumor had formed, mice were randomly divided into treatment groups described below. Body weight in grams and dimensions of developing tumors in mm^3 were measured on alternate days (1-6). Drugs were prepared in 0.5% methylcellulose, 0.5% Tween 80, 5% DMSO and […] administered per oral treatment.
Group 1 (vehicle control, 0.5% methylcellulose, 0.5% Tween 80, 5% DMSO) daily for 18 days;
Group 3 (MK1775, 50 mg/kg) daily for 18 days; and
Group 5 (vehicle control, 0.5% methylcellulose, 0.5% Tween 80, 5% DMSO) b.i.d. (twice a day) for 18 days;
Group 7, (MK1775, 30 mg/kg b.i.d. for 3 days on, 4 days off) for 18 days; and […]

The subject of series [4] is UACC 903 cells. The experiment in a line: RNA sequencing, differentially expressed genes. It is filed as cell-based, human. The following applies: 24 hours after treatment; intensity difference test p<0.05. From the text: Twenty-four hours following treatment with tested agents, total RNA was extracted from UACC 903 cells using mirVana RNA isolation kit (Life Technologies, Grand Island, NY). Next, using SureSelect Strand Specific RNA Library Preparation kit (Agilent) cDNA libraries were constructed, polyA RNA was purified with oligo (dT) beads and then extracted RNA was processed through fragmentation, reverse transcription, end repair, 3′-end adenylation, adaptor ligation, PCR amplification and SPRI bead purification (Beckman Coulter). For multiplexed high-throughput sequencing, the unique barcode sequences were incorporated. Libraries were then denatured using the Illumina protocol, diluted with pre-chilled hybridization buffer and loaded onto TruSeq SR v3 flow cells on an Illumina HiSeq 2500 (50 cycles, single-read). Sequencing reads were extracted by using Illumina CASAVA pipeline Version 1.8 and aligned to the human reference genome (hg38) using Tophat (version 2.0.9) as described in detail in Trapnell et al, Bioinformatics 2009; 25(9): 1105-11. SeqMonk (version 0.32.0) was used for the identification of differentially expressed genes. Following RNA-Seq quantitation, 75% percentile normalization was performed and significant alterations were determined via intensity difference test with Benjamini and Hochberg multiple testing correction (p-value <0.05). […]

Series [5] concerns UACC 903 cells. The experiment in a line: cytotoxicity of pharmacological agents alone or combined (CellTiter 96), 48 hours. To be noted: Homo sapiens, UACC-903, read-out: reduced cell viability. It is filed as cell-based. How it is done:
as §1

Turning to `NC1(C(=O)N[C@@H](CCO)c2ccc(Cl)cc2)CCN(c2ncnc3[nH]ccc23)CC1` [AZD5363], in series [1], the CREA is given as 0.1 ± 0^ mg/dL, the BUN stood at 25.8 ± 2.2 mg/dL, the TBIL was determined as 0.5 ± 0.1 mg/dL and the ALB was 2.5 g/dL. In series [1], the “SGPT (ALT)” value worked out at 41.3 ± 7.4 u/L, the ALKP was 86.3 ± 7.5 u/L, the GLOB was 2.6 ± 0.1 g/dL and the TP is recorded as 5.1 ± 0.1 g/dL. In series [1], this compound returned a CHOL of 113.5 ± 7.6 mg/dL, a GLU of 214 ± 30.6 mg/dL and an AMYL of 1891 ± 129.7 U/L. Besides, the “decrease in tumor size / tumor development” value in series [2] came out at 36%. Further, the “cell viability, single agents” value with C8161.C19 cells is “reduced cell viability”. Moreover, in the series on UACC 903 melanoma cells, the “phosphorylated CDK1 levels” value is given as “reduced the phosphorylation of CDK1 in a dose-dependent manner” and the “phosphorylated PRAS40 levels” value was “dose-dependently decreased phosphorylated PRAS40 levels”. Also, in series [3], the “reduced growth of 1205 Lu xenograft / tumor development” value was around 50% and the “reduced growth of 1205 Lu xenograft tumors” value is recorded as around 30%. For the same compound, the “number of significantly deregulated genes” value in the series on UACC 903 cells [4] is given as 64 genes.

For the compound `CC(C)NC[C@@H](C(=O)N1CCN(c2ncnc3c2[C@H](C)C[C@H]3O)CC1)c1ccc(Cl)cc1` [GDC0068, ipatasertib], in the series with C8161.C19 cells, the “cell viability, single agents” value is listed as “reduced cell viability”.

In the case of `C=CCn1c(=O)c2cnc(Nc3ccc(N4CCN(C)CC4)cc3)nc2n1-c1cccc(C(C)(C)O)n1` [MK1775, 2-allyl-1-(6-(2-hydroxypropan-2-yl)pyridin-2-yl)-6-((4-(4-methylpiperazin-1-yl)phenyl)amino)-1H-pyrazolo[3,4-d]pyrimidin-3(2H)-one], in series [1], the CREA worked out at 0.1 ± 0 mg/dL, the BUN is on record as 25.3 ± 1.9 mg/dL, the TBIL is 0.6 ± 0 mg/dL and the ALB came out at 0.0026 ± 0.0001 g/dL. Besides, in series [1], the “SGPT (ALT)” value was 55 ± 10.1 u/L, the ALKP came out at 75 ± 5.6 u/L, the GLOB worked out at 2.6 ± 0 g/dL and the TP is 5.2 ± 0.1 g/dL. In series [1], the CHOL is listed as 142.5 ± 4.6 mg/dL, the GLU is 237.5 ± 31.4 mg/dL and the AMYL was 2251.8 ± 50.2 U/L. Further, in series [2], the “decrease in tumor size / tumor development” value was “ineffective”. Also, the “cell viability, single agents” value in the series with C8161.C19 cells is on record as “reduced cell viability”. In the series on C8161.C19 cells (C8161.C19 cell line), the relative single-agent activity entry is recorded as “significantly more effective”. Further, the cytotoxicity at 0.63 µM in the series with UACC 903 cells [5] lay in the range of 35 to 40%. Moreover, the “phosphorylated CDK1 levels” value in the series with UACC 903 melanoma cells was “decreased phosphorylated CDK1 levels”. Moreover, in series [3], the “reduced growth of 1205 Lu xenograft / tumor development” value was around 50% and the “reduced growth of 1205 Lu xenograft tumors” value was around 30%. For the same compound, the “number of significantly deregulated genes” value in the series on UACC 903 cells [4] was 94 genes.
